The values that follow come from patent US20250367218A1, “METHODS OF TREATING METABOLIC DISORDERS AND COMBINATION PRODUCTS FOR USE IN THE SAME” (INSTITUT PASTEUR DE MONTEVIDEO, priority 2024, published 2025).

The nature of experiment [1]: Weight regain of HFD mice after discontinuation of treatment (rebound effect). The format is in vivo, C57BL/6J mice. The procedure: Comparison of weight regain in mice following discontinuation of treatment with SANA or a GLP-1 agonist was measured in order to quantify the “rebound effect” as a result of discontinuing treatment. Mice were fed a high-fat diet for a period of 5 weeks, and were then untreated (HFD), treated with GLP-1 agonist (liraglutide, 0.2 mg/kg/day SC daily injection, LIRA), or treated with SANA (200 mg/kg/day PO) for a period of nine weeks. The high-fat diet was continued during the treatment period. Following week 9, all treatment was discontinued and weight regain in the mice was monitored through week 14.
The ability of SANA to prevent the regain of weight in mice following discontinuation of GLP-1 treatment was also assessed. Mice were fed a high-fat diet for a period of 5.5 weeks, and were then untreated (HFD), treated with GLP-1 agonist (semaglutide, 40 mg/kg s.c. every 3 days), or treated with semaglutide+SANA (10 mg/kg/day) for a period of 2.5 weeks. At week 8, except for the control group (HFD) all groups were treated only with SANA (10 mg/kg/day, s.c.).
A higher dose of SANA was then assessed for its ability to prevent the regain of weight in mice following discontinuation of GLP-1 treatment. […] The weight regain of the mice was monitored for another 1.5-6.5 weeks. *, **, ***, #, and ## show statistically significant differences, p<0.05, p<0.01, p<0.001, p<0.05, and p<0.01, respectively.

Experiment [2] in a line: Body weight of obese mice fed a high-fat diet (HFD) during treatment. The format is in vivo, C57BL/6J mice. The procedure: (§1) All studies conducted in mice utilized C57BL/6J mice maintained at the Institut Pasteur de Montevideo Animal facility (UBAL). Experimental protocols were approved by the Institutional Animal Care and Use Committee of the Institut Pasteur de Montevideo (CEUA, Protocol numbers 003-19 and 006-19). Studies were performed according to the methods approved in the protocols. All the experiments were performed on adult male mice (10-12 weeks of age) and were conducted at either 22° C. with free access to food and water. Unless specified, mice were housed at 22° C. in groups of five.
High-fat diet (HFD) feeding: Male C57BL/6J mice housed at 22° C. were fed a high-fat diet (42% fat and 0.25% cholesterol, AlN93G, LabDiet, USA), starting at 12 weeks of age and for a duration of 5 weeks prior to beginning administration of any active pharmaceutical ingredients. After the onset of the treatment, HFD ad libitum was maintained until the end of the experiments.
Drug delivery: SANA was administered orally (PO) by mixing with the food (50, 100, or 200 mg/kg/day), or subcutaneously (SC, 10, 15, or 20 mg/kg/day in 100 mM phosphate buffer, pH 6.5). In all cases the vehicle was used as control. Liraglutide (Novo Nordisk, Denmark) was administered daily, subcutaneously (SC, 0.2 mg/kg/day). Semaglutide (Ozempic®, Novo Nordisk, Denmark) was administered subcutaneously (SC, 2 nmol/kg/day or 40 mg/kg every 3 days).
Mice were fed with a high fat diet (HFD) for 5 weeks prior to the initiation of treatment, and the high-fat diet continued during a 2-week treatment period. FIGS. 1A-1B show graphs of average mouse weight without treatment (HFD, n=8), treatment with SANA (HFD+SANA, 200 mg/kg/day, n=9), treatment with liraglutide (HFD+LIRA, 0.2 mg/kg/day, n=8), or treatment with a combination of SANA (200 mg/kg/day) and liraglutide (0.2 mg/kg/day) (HFD+SANA+LIRA, n=10).
FIGS. 3A and 3B show graphs of the average mouse weight without treatment (n=9), treatment with SANA (15 mg/kg/day, n=8), treatment with semaglutide (2 nmol/kg/day, n=10), or treatment with a combination of SANA (15 mg/kg/day) and semaglutide (2 nmol/kg/day) (n=10). Mice were fed with a high fat diet (HFD) for 5.5 weeks prior to the initiation of treatment, and the high-fat diet continued during the 3-week treatment period. Referring to FIGS. 3A and 3B, obese mice administered SANA alone (HFD+SANA) or semaglutide alone (HFD+SEMA) experienced an average weight loss of about 5% after three weeks.
In a separate experiment, different doses of subcutaneous semaglutide alone were compared to treatment with oral administration of SANA alone, and to treatment with a combination of oral SANA and two different doses of subcutaneous semaglutide. […]

The nature of experiment [3]: Blood glucose measurements: fasting/basal glucose and glucose tolerance test (GTT) in HFD mice. The format is in vivo, C57BL/6J mice. The note with it: SANA 200 mg/kg/day PO after discontinuation of concomitant SANA plus semaglutide, versus semaglutide 10 nmol/kg/day alone; FIGS. 6E, 6F. The procedure:
Blood glucose measurements: Mice were kept in fasting for 16 h before fasting glucose measurement and glucose tolerance tests (GTT). When performing GTT, mice were injected (IP) with 1.5 g/kg body weight of glucose solution. Plasma glucose concentrations were measured from blood obtained from the tail using a hand-held glucometer (Accu-Chek, Roche).
Glucose tolerance (“GTT”), basal glucose, and glucose Area Under the Curve (“AUC”) were also measured following two weeks of treatment, and the results are presented graphically in FIGS. 2A, 2B, and 2C with * indicating a statistically significant difference, p<0.05.
A higher dose of SANA was then assessed for its ability to prevent the regain of weight in mice following discontinuation of GLP-1 treatment. Referring to FIGS. 6B and 6C, mice were fed a high-fat diet for a period of 5.5 weeks, and then were untreated (HFD), treated with GLP-1 agonist (semaglutide, 10 nmol/kg/day—SC), or treated with semaglutide+SANA for a period of 1.5 weeks, at which time, the semaglutide treatment was ceased and the groups were treated only with SANA (200 mg/kg/day, PO). The weight regain of the mice was monitored for another 1.5-6.5 weeks. *, **, ***, #, and ## show statistically significant differences, p<0.05, p<0.01, p<0.001, p<0.05, and p<0.01, respectively. […]

For experiment [4] the following is noted: cited from earlier work.
A short description of experiment [5]: Serum non-esterified fatty acids (NEFA) in HFD mice. The format is in vivo, C57BL/6J mice. The note with it: 4 weeks; SANA 200 mg/kg/day, semaglutide 2 nmol/kg/day, alone or combined; FIG. 7B. The procedure:
As described in Example 2A above, mice were fed with a high fat diet (HFD) for 5.5 weeks prior to the initiation of treatment, and the high-fat diet continued during the 4 week treatment period. Different doses of semaglutide were provided, either alone or in combination with SANA, and compared to SANA alone and untreated mice alone. Specifically, mice were either untreated (HFD) (n=5), or treated with SANA (200 mg/kg/day, n=5), semaglutide (0.25 nmol/kg/day, n=5), semaglutide (2 nmol/kg/day, n=4), a combination of SANA (200 mg/kg/day) and semaglutide (0.25 nmol/kg/day) (n=5), or a combination of SANA (200 mg/kg/day) and semaglutide (2 nmol/kg/day) (n=3).
Next, different doses of SANA were tested, either alone or in combination with semaglutide, and compared to treatment with semaglutide alone and untreated mice. Specifically, as described in Example 2A above, mice were fed with a high fat diet (HFD) for 5.5 weeks prior to the initiation of treatment, and the high-fat diet continued during the 1.5-week treatment period. […]

The nature of experiment [6]: Cumulative food intake of mice fed a high-fat diet (HFD). The format is in vivo, C57BL/6J mice. To be noted: SANA 200 mg/kg/day PO continued after 1.5 weeks of concomitant SANA plus semaglutide 10 nmol/kg/day; FIG. 6D. The procedure: as §1
High-fat diet (HFD) feeding: Male C57BL/6J mice housed at 22° C. were fed a high-fat diet (42% fat and 0.25% cholesterol, AlN93G, LabDiet, USA), starting at 12 weeks of age and for a duration of 5 weeks prior to beginning administration of any active pharmaceutical ingredients. After the onset of the treatment, HFD ad libitum was maintained until the end of the experiments. […]
A higher dose of SANA was then assessed for its ability to prevent the regain of weight in mice following discontinuation of GLP-1 treatment. […] The weight regain of the mice was monitored for another 1.5-6.5 weeks. *, **, ***, #, and ## show statistically significant differences, p<0.05, p<0.01, p<0.001, p<0.05, and p<0.01, respectively. […]

The mark [7] stands for this setting: obese mice treated with SANA, WO2020058917A1 / US2023346728A1.

As for `O=C(O)c1cc(/C=C/[N+](=O)[O-])ccc1O` [SANA, 5-(2-nitroethenyl) salicylic acid], the “regain of weight after discontinuation of semaglutide” value in experiment [1] (SANA 10 mg/kg/day s.c. after 2.5 weeks of semaglutide (40 mg/kg s.c. every 3 days) alone or SANA plus semaglutide, FIG. 6A) is “prevented regain of weight”. The “regain of weight after discontinuation of semaglutide” value in experiment [1] (SANA 200 mg/kg/day PO after 1.5 weeks of semaglutide (10 nmol/kg/day SC) alone or SANA plus semaglutide, FIGS. 6B, 6C) is recorded as “prevented regain of weight”. Further, the “average reduction in weight during the treatment period” value in experiment [2] (HFD mice, nine weeks, liraglutide 0.2 mg/kg/day SC or SANA 200 mg/kg/day PO, FIG. 5) was 15%. The average weight loss result in experiment [2] (obese HFD mice, after four weeks, oral SANA 200 mg/kg/day, subcutaneous semaglutide 2 nmol/kg/day, alone or concomitant, FIGS. 3E, 3F) was “about 5%”. Also, the average weight loss result in experiment [2] (obese HFD mice, after three weeks, SANA 15 mg/kg/day, semaglutide 2 nmol/kg/day, alone or concomitant, FIGS. 3A, 3B) is on record as “about 5%”. The weight loss result in experiment [2] (obese HFD mice, after two weeks, SANA 200 mg/kg/day, liraglutide 0.2 mg/kg/day, alone or concomitant, FIGS. 1A, 1B) is given as “about 10%”. The “fasting glucose, lower” value in experiment [3] stood at 55%. For the same compound, the “thermogenesis and beiging of white adipose tissue” value in experiment [4] (mice under diet-induced obesity (DIO), by activating creatine-dependent thermogenesis) was “stimulates thermogenesis and beiging of white adipose tissue”. Moreover, in experiment [4] (setting [7]), the fat accretion result is “resistance to fat accretion”, the glucose intolerance entry was “improved glucose intolerance”, the liver steatosis result is reported as “absence of liver steatosis” and the “response to cold challenge” value was “improved response to cold challenge”. Also, in experiment [5], the “drop in serum NEFA levels” value is reported as “little to no change”. Moreover, the “cumulative food intake after discontinuation of semaglutide” value in experiment [6] is given as “remained lower”.
